In patent US9546150B2, “Substituted quinazolin-4-ones for inhibiting ubiquitin specific protease 7” (HYBRIGENICS SA, priority 2011, dated 2017):
pIC50: −log10 of the molar value.

Tests used:
Assay type in all cases: biochemical
[1] = target: T1, USP5 (Homo sapiens, UniProt P45974); experiment: USP5 activity assay, Ub-AMC substrate; settings: UbAMC substrate 300 nM, USP5 300 pM
T1 sequence (P45974 1-858): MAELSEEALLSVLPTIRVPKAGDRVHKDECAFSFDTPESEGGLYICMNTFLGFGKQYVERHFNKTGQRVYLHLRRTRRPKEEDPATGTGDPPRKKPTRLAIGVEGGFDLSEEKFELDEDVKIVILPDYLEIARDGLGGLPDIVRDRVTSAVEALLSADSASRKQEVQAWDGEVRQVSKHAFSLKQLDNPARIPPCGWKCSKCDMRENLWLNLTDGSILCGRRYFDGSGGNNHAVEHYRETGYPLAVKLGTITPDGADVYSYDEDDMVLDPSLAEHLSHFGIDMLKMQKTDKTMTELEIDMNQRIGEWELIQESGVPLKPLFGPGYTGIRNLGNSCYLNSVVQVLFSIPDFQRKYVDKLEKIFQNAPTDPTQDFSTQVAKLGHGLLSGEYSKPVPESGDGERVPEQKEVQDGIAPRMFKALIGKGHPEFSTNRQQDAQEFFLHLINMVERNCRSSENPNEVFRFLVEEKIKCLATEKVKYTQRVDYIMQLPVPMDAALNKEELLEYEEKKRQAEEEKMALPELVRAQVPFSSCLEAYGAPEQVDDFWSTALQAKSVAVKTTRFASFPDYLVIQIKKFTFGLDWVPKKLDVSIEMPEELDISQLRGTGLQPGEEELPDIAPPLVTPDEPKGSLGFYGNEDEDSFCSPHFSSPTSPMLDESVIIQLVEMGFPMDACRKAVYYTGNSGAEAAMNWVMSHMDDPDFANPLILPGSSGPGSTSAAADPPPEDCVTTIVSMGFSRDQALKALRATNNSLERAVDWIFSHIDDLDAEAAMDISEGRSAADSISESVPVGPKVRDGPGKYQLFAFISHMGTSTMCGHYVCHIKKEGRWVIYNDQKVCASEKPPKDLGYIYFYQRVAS
Experimental: USP5 was diluted in USP buffer (50 mM Tris HCl; 0.5 mM EDTA; 5 mM DTT; 0.01% Triton X-100; Bovine Serum Albumin 0.05 mg·ml^−1 pH 7.6). Compounds stocks (100 mM) were stored at −20° C. in DMSO.
Reactions were performed as duplicates in Black 384 well plates (small volume microplates; Greiner; 10 μl final reaction volume). The substrate concentration for USP5 was 300 nM Ub-AMC (Boston Biochem). The concentrations of the enzyme (USP5) in specificity assays was 300 pM. The concentrations were determined in order to perform specificity assays under initial velocities at fixed substrate concentration. Compounds were pre-incubated with enzymes for 30 minutes at 25° C. Reactions were initiated by addition of substrate to the plates containing the enzymes (+/− compounds) diluted in assay buffer. Reactions were incubated for 60 minutes at 37° C. Reactions were stopped by adding acetic acid (100 mM final). Readings were performed on a Pherastar Fluorescent Reader (BMG). λ Emission 380 nm; λ Excitation=460 nm.

[2] = target: USP7 (Homo sapiens, UniProt Q93009); experiment: GST-Ub52-Flag HTRF deubiquitinating enzyme assay, USP7; parameters: Full-length wild-type human USP7 and its catalytic mutant; His tag (pFastBac-HT vector) (N); made in house; host or cells: Spodoptera frugiperda Sf9 (or High Five) insect cells, baculovirus; settings: GST-Ub52-Flag substrate, USP7 200 pM
Chain of USP7 (Q93009 whole entry): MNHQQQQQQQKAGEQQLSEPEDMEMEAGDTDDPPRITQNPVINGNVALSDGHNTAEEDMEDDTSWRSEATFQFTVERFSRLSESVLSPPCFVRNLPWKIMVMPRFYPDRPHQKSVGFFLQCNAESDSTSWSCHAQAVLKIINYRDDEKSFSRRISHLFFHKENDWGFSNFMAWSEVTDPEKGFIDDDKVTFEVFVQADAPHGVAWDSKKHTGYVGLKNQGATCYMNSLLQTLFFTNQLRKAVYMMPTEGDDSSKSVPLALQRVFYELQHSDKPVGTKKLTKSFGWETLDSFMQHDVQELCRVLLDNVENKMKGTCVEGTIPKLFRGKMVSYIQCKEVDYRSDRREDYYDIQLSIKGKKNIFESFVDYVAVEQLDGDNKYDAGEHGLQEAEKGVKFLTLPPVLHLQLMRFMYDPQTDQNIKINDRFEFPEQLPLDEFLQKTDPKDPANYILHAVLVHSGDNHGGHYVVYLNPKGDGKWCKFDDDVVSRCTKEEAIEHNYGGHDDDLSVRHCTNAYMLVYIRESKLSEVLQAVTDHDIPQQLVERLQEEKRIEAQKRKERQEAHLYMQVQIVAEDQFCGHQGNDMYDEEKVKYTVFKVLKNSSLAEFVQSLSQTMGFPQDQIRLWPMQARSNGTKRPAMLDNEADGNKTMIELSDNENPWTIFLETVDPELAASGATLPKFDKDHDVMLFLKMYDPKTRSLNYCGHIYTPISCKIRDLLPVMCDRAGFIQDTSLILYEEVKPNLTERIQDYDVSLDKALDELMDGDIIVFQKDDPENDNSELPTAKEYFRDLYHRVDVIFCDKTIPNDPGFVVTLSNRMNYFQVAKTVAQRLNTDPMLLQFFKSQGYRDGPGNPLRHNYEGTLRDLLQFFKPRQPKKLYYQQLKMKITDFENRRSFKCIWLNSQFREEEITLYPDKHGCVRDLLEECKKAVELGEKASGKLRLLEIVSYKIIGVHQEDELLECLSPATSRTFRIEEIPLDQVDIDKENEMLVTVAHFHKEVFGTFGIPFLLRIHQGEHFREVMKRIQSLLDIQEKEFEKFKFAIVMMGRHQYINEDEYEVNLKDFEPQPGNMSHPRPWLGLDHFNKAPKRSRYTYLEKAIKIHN
Experimental: Bacmid DNA was prepared by an alkaline lysis procedure. The integrity of the bacmid minipreps and their orientation were checked by PCR, using generic and specific primers. Sf9 insect cells were cultured in InsectXpress medium (Cambrex) at 27° C. and transfected with the corresponding bacmid, using GeneShuttle 40 (Q-BIOgen). Viruses were recovered in the supernatant 72 h after transfection. Viruses were amplified by infecting insect cells (Sf9 or High Five cells; invitrogen) in 50 ml InsectXpress medium in a 150 cm^2 cell culture flask with 500 μl of the supernatant from transfected Sf9 cells. Following the second round of amplification, infected cells were recovered by rapid SDS lysis, boiled for 5 min at 100° C., sonicated briefly and centrifuged for 20 min at 14,000 g.
Flow Through was recovered.

[3] = target: T2, Caspase 3 (Homo sapiens, UniProt P42574); experiment: Caspase 3 activity assay, Ac-DEVD-AMC substrate; settings: Ac-DEVD-AMC 250 nM, Caspase 3 1.6 nM
T2 sequence (P42574 29-175 limits assumed): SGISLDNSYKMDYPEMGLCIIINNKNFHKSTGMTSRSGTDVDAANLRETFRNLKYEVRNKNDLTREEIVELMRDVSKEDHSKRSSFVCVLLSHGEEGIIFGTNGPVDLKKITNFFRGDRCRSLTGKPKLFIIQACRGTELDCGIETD
T2 sequence (P42574 176-277 limits assumed): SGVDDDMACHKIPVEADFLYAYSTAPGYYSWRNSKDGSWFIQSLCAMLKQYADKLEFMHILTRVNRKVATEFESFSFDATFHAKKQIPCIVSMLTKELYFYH
Experimental: Caspase 3 was diluted in Caspase 3 buffer (100 mM Hepes pH 7.5; 10% sucrose; 0.1% CHAPS). Compounds stocks (100 mM) were stored at −20° C. in DMSO. Compounds were tested at different concentrations: from 200 μM to 91 nM.
Reactions were performed as duplicates in Black 384 well plates (small volume microplates; Greiner; 10 μl final reaction volume). The substrate concentration for caspase 3 specificity assay was 250 nM (Ac-DEVD-AMC; Promega). The concentration of the enzyme (Caspase 3) in specificity assays was 1.6 nM. The concentrations were determined in order to perform specificity assays under initial velocities at fixed substrate concentration. Compounds were pre-incubated with enzymes for 30 minutes at 25° C. Reactions were initiated by addition of substrate to the plates containing the enzymes (+/− compounds) diluted in assay buffer. Reactions were incubated for 60 minutes at 37° C. Reactions were stopped by adding acetic acid (100 mM final). Readings were performed on a Pherastar Fluorescent Reader (BMG). λ Emission 380 nm; λ Excitation=460 nm.

| pIC50 [1] | pIC50 [2] | pIC50 [3] | SMILES |
| --- | --- | --- | --- |
| < 3.70 | 4.13 | < 3.70 | O=C(CCc1ccccc1)N1CCC(O)(Cn2cnc3ccccc3c2=O)CC1 [Example 1, 3-{[4-hydroxy-1-(3-phenylpropanoyl)piperidin-4-yl]methyl}-3,4-dihydroquinazolin-4-one] |
|  | 4.11 | < 3.70 | O=C(CCc1ccccc1)N1CCC(O)(Cn2cnc3cc(Cl)ccc3c2=O)CC1 [Example 2, 7-chloro-3-{[4-hydroxy-1-(3-phenylpropanoyl)piperidin-4-yl]methyl}-3,4-dihydroquinazolin-4-one] |
| < 3.70 | 3.76 | < 3.70 | O=C(CCC1CCCC1)N1CCC(O)(Cn2cnc3ccccc3c2=O)CC1 [Example 3, 3-{[1-(3-cyclopentylpropanoyl)-4-hydroxypiperidin-4-yl]methyl}-3,4-dihydroquinazolin-4-one] |
| < 3.70 | 3.76 | < 3.70 | O=C(CCC1CCCC1)N1CCC(O)(Cn2cnc3cc(Cl)ccc3c2=O)CC1 [Example 4, 7-chloro-3-{[1-(3-cyclopentylpropanoyl)-4-hydroxypiperidin-4-yl]methyl}-3,4-dihydroquinazolin-4-one] |
| < 3.70 | 4.44 | < 3.70 | CC(Cc1cccs1)C(=O)N1CCC(O)(Cn2cnc3ccccc3c2=O)CC1 (stereo not shown) [Example 5, 3-({4-hydroxy-1-[2-methyl-3-(thiophen-2-yl)propanoyl]piperidin-4-yl}methyl)-3,4-dihydroquinazolin-4-one] |
| < 3.70 | < 3.70 | < 3.70 | CC(C)C(=O)N1CCC(O)(Cn2cnc3ccccc3c2=O)CC1 [Example 6, 3-{[4-hydroxy-1-(2-methylpropanoyl)piperidin-4-yl]methyl}-3,4-dihydroquinazolin-4-one] |
| < 3.70 | 3.76 | < 3.70 | COc1cc2ncn(CC3(O)CCN(C(=O)C(C)C)CC3)c(=O)c2cc1OC [Example 7, 3-{[4-hydroxy-1-(2-methylpropanoyl)piperidin-4-yl]methyl}-6,7-dimethoxy-3,4-dihydroquinazolin-4-one] |
| < 3.70 | 3.67 | < 3.70 | CCC(CC)C(=O)N1CCC(O)(Cn2cnc3cc(Cl)ccc3c2=O)CC1 [Example 9, 7-chloro-3-{[1-(2-ethylbutanoyl)-4-hydroxypiperidin-4-yl]methyl}-3,4-dihydroquinazolin-4-one] |
| < 3.70 | < 3.70 | < 3.70 | COc1ccccc1CCC(=O)N1CCC(O)(Cn2cnc3ccccc3c2=O)CC1 [Example 10, 3-({4-hydroxy-1-[3-(2-methoxyphenyl)propanoyl]piperidin-4-yl}methyl)-3,4-dihydroquinazolin-4-one] |
| < 3.70 | 4.48 | < 3.70 | CC(Cc1cccs1)C(=O)N1CCC(O)(Cn2cnc3cc(Cl)ccc3c2=O)CC1 (stereo not shown) [Example 11, 7-chloro-3-({4-hydroxy-1-[2-methyl-3-(thiophen-2-yl)propanoyl]piperidin-4-yl}methyl)-3,4-dihydroquinazolin-4-one] |
| < 3.70 | 4.38 | < 3.70 | O=C(CCc1cccs1)N1CCC(O)(Cn2cnc3ccccc3c2=O)CC1 [Example 12, 3-({4-hydroxy-1-[3-(thiophen-2-yl)propanoyl]piperidin-4-yl}methyl)-3,4-dihydroquinazolin-4-one] |
| < 3.70 | 4.54 | < 3.70 | CC(Cc1ccccc1)C(=O)N1CCC(O)(Cn2cnc3cc(Cl)ccc3c2=O)CC1 (stereo not shown) [Example 14, 3-{[1-(2-benzylpropanoyl)-4-hydroxypiperidin-4-yl]methyl}-7-chloro-3,4-dihydroquinazolin-4-one] |

| SMILES | pIC50 [1] | pIC50 [2] | pIC50 [3] |
| --- | --- | --- | --- |
| CC(Cc1ccccc1)C(=O)N1CCC(O)(Cn2cnc3ccccc3c2=O)CC1 (stereo not shown) [Example 13, 3-{[1-(2-benzylpropanoyl)-4-hydroxypiperidin-4-yl]methyl}-3,4-dihydroquinazolin-4-one] | < 3.70 |  | < 3.70 |
